Data taken from the NIST ThermoML archive (doi:10.1016/j.jct.2013.10.010).
± gives the expanded uncertainty stated by the source.

Experiments:
[1] = φn = volume fraction of the nth substance listed; settings: 298.15 K, Wilhelmy Plate Method
[2] = 298.15 K, Wilhelmy Plate Method

surface tension liquid-gas ([1]; φ1 = 0.1)	surface tension liquid-gas ([1]; φ1 = 0.2)	surface tension liquid-gas ([1]; φ1 = 0.3)	surface tension liquid-gas [2]	surface tension liquid-gas ([1]; φ2 = 0)	SMILES
68.3 ± 0.4 mN/m	64.8 ± 0.4 mN/m	61.5 ± 0.4 mN/m			OCCO [1,2-ethanediol] + O
			71.8 ± 0.4 mN/m		O [water]
				71.8 ± 0.4 mN/m	O [water] + OCCO
				71.8 ± 0.4 mN/m	O [water] + C1COCCO1
54 ± 0.4 mN/m	52 ± 0.4 mN/m	46.6 ± 0.4 mN/m			C1COCCO1 [1,4-dioxane] + O
